Here are results for 2 substances from US20240091328A1, “FORMULATIONS AND METHODS FOR MHC-I RESTRICTED EPITOPE IMMUNIZATION” (The Research Foundation for The State University of New York, priority 2021, published 2024).

In test [1] the test system is TC-1 cells. Briefly: Therapeutic vaccine tumor model, subcutaneous TC-1. Format: in vivo, C57BL/6 mice. The settings on record: E7HHH49-57 admixed with poly(I:C), up to 20 μg peptide. From the text:
(§1) FIG. 23. Immunization with E7HHH49-57-admixed with CPQ inhibits tumor growth in a therapeutic setting more potently than poly(I:C). C57BL/6 mice were inoculated with TC-1 cells subcutaneously on day 0; then different vaccines were given 2 days post-tumor inoculation. Blood was collected 18 days post-tumor inoculation for CD8^+ T cell analyses. (A) Tumor growth of mice that vaccinated with indicated vaccine. (B) Tumor sizes of mice on day 19. (C) Survival of mice. (D) Percentage of CD8^+E749-57 tet^+ cells in the blood. Error bars show mean+/−std. dev. for n=5 per group. * p<0.05, ** p<0.01 and **** p<0.0001, analyzed by (C) long rank test or (D) one-way ANOVA with Bonferroni multiple comparisons post-test.
(§2) Since CPQ/E7HHH49-57 was effective in a prophylactic setting, we next assessed the vaccine on established TC-1 tumors, which is also the setting in which most cancer vaccines would be initially tested clinically. Poly(I:C) was used as an adjuvant comparator. For poly(I:C), the synthetic short peptide dose ranged from […] per mouse while the poly(I:C) dose remained fixed at […]. For the CPQ liposome adjuvant, the peptide dosing varied from […] per mouse. Given that the ratio of liposomes to peptide was fixed, this corresponds to a 3D6A-PHAD dose and QS-21 dose ranging from 1.6 to 0.16 μg, along with a CoPoP dose ranging from 4 to 0.4 μg. […]

The subject of test [2] is E749-57 specific CD8^+ T cells. Briefly: E749-57 tetramer staining of CD8+ T cells in blood. The settings on record: E7HHH49-57 admixed with poly(I:C), 19 days post-tumor inoculation. Format: in vivo, C57BL/6 mice.
Source text: as §1, with “Blood was collected 18 days post-tumor inoculation for CD8^+ T cell analyses.” left out
as §2

For test [3], the system named is AH1-specific CD8^+ T cells. In words: AH1 tetramer staining of CD8+ T cells after immunization. Format: in vivo, BALB/c mice. The settings on record: CPQ with 1 μg total peptide, days 0 and 7, blood day 14. As to the method:
In vivo immunization: Murine studies were performed according to protocols approved by the University at Buffalo IACUC. 5-6 week-old female BALB/c mice (Charles River Laboratories, strain BALB/cAnNCrl) were immunized intramuscularly on the right hind leg. BALB/cJ mice (Jackson Laboratories) were used in this study only for DNA sequencing where indicated.
For tetramer staining, immunized mice were analyzed for the percentages of tumor Ag-specific CD8^+ T cells by a tetramer staining assay. H-2L^d-restricted AH1 ([…]) peptide was complexed with MHC-I (H-2L^d) and conjugated with PE (the NIH Tetramer core facility). 60 μL of blood incubated with the AH1 tetramer for 1 hr at 4° C. (100× dilution), then incubated with CD8a, MHC-II (IA/IE), B220, CD4, CD44 and CD62L antibodies for 30 min at 4° C. (1000× dilution). Red blood cells were lysed by cell lysis buffer for 5 mins then cells were centrifuged at 500×g for another 5 min. The cell pellets were washed twice for flow cytometry analysis. For tetramer staining of splenocytes, 1×10^6 cells were incubated with tetramer and antibodies in the same condition as blood, and then washed twice for flow cytometry analysis. Flow cytometry studies were carried out using a BD LSRFortessam X-20 cytometer. Flowjo (version 10) software was used for data analysis.

As to “Polyinosinic:polycytidylic acid [poly(I:C)]”, the “Time within which tumors of all mice reached the 1 cm endpoint” value in test [1] is recorded as not above 60 days. In test [2], the “Ag-specific CD8^+ T cells in the blood” value is on record as “almost no”.
On to SPSYVYHQF [AH1], for which the “CD8^+ T cells that were Ag specific (AH1 tet^+)” value in test [3] is “did not elicit detectable amount”.
